Format in all cases: in vivo, Sprague-Dawley rats
The subject of assay [1] is rats with HF induced by LAD ligation. Kind of assay: Body weight and heart weight in LAD ligation ischemic HF rats (Example 5). To be noted: mean ± SD, 9 weeks oral therapy; for Heart Wt: HF 2.16 ± 0.33, Sham 1.72 ± 0.09; for % Δ Weight (percentage change in pre-treatment to post-treatment weights): clenbuterol 1 mg/kg/day, metoprolol 200 mg/kg/day, HF 33.8 ± 4.79, Sham 76.1 ± 19.3. The protocol: All studies were performed in compliance with the Guide for the Care and Use of Laboratory Animals (NRC 1996) and were approved by the Institutional Animal Care and Use Committee of Columbia University. Sprague-Dawley rats (Charles River Laboratories, Wilmington, Mass.) weighing 250 to 300 g were used for all experiments. Food and water were provided ad libitum, with rats housed in a light- and temperature-controlled room over the 12-week study period.
(§1) After the induction of general anesthesia with the use of intraperitoneal ketamine (75 mg/kg; Fort Dodge Animal Health, Fort Dodge, Iowa) and xylazine (5 mg/kg; Lloyd Laboratories, Shenandoah, Iowa), endotracheal intubation with a 16-guage angiocathether was performed. Rats were supported by a small animal ventilator (Harvard Apparatus, Holliston, Mass.). After performing a left thoracotomy, a sham operation (pericardiectomy only) or left anterior descending artery (LAD) ligation with a 7-0 polypropylene suture was performed. Subsequently, a chest tube (16-guage angiocathether) was placed in the left pleural space prior to closing the incision in three layers. Finally, the chest tube was used to aspirate the pleural cavity and removed after extubation.
(§2) A total of 69 rats were used in this study. LAD ligation surgery was performed in 60 rats, of which 37 (62%) survived three weeks post-surgery. Another 9 rats underwent a sham operation (group Sham), with 7 (78%) survivors. Three weeks post-operatively, echocardiography was performed to establish the baseline level of HF (as measured by fractional shortening). The LAD ligation rats were divided into 4 treatment groups matched for the degree of HF and were randomly assigned to one of the following therapies for 9 additional weeks: (1) rats receiving no therapy (group HF, n=9); (2) rats receiving high-dose clenbuterol at 1 mg/kg/day (group Clen, n=9); (3) rats receiving high-dose metoprolol at 200 mg/kg/day (group Meto, n=9); or (4) rats receiving concurrent high-dose clenbuterol at 1 mg/kg/day and high-dose metoprolol therapy at 200 mg/kg/day (group Clen+Meto, n=10).
Clenbuterol (ICN Biomedicals, Aurora, Ohio) was sonicated and subsequently dissolved in the drinking water. Metoprolol (Sigma-Aldrich, St. Louis, Mo.) was dissolved in the drinking water either alone or in combination with clenbuterol for the Clen+Meto group. The concentrations of clenbuterol and metoprolol were varied to keep the study drug dose delivered within a narrow therapeutic window based on daily water consumption. […]
Body weight was measured pre-surgery and 3 and 12 weeks post-surgery. Heart weight was measured immediately after the heart was excised. The ratio of body weight to heart weight was subsequently calculated.

Assay [2] shares this test system. Briefly: Hemodynamic measurements (Millar catheter) in LAD ligation ischemic HF rats (Example 5). As to conditions: mean ± SD, after 9 weeks oral therapy; for MAP: HF 47.2 ± 8.85, Sham 39.8 ± 5.56; for LVSP: HF 113 ± 10.3, Sham 116 ± 17.3; for HR: HF 302 ± 19.1, Sham 291 ± 52.2; for Maximum dP/dt: HF 4609 ± 583, Sham 6700 ± 1706; for Minimum dP/dt: HF −3854 ± 563, Sham −6458 ± 1799. The protocol: as §1
as §2, with “LAD ligation surgery was performed in 60 rats, of which 37 (62%) survived three weeks post-surgery. Another 9 rats underwent a sham operation (group Sham), with 7 (78%) survivors.” left out
Clenbuterol (ICN Biomedicals, Aurora, Ohio) was sonicated and subsequently dissolved in the drinking water. Metoprolol (Sigma-Aldrich, St. Louis, Mo.) was dissolved in the drinking water either alone or in combination with clenbuterol for the Clen+Meto group. The concentrations of clenbuterol and metoprolol were varied to keep the study drug dose delivered within a narrow therapeutic window based on daily water consumption. […] The treated drinking water was made fresh every 48-72 hours. Oral pharmacotherapy was continued for a total of 9 weeks.
In the terminal experiments 12 weeks post-surgery, the rats were anesthetized with inhaled isoflurane mixed with oxygen. A 2-French Millar catheter (Millar Instruments, Houston, Tex.) was inserted into the right carotid artery and pressure measurements collected and saved as the catheter was advanced into the left ventricle. The heart was quickly arrested in diastole and excised. Hearts were subsequently weighed and used for the ex vivo determination of LV end-diastolic pressure-volume relationships (EDPVR). Using Chart 4 (version 4.2.4, ADInstruments, Colorado Springs, Colo.), left ventricular end-diastolic pressure (LVEDP), left ventricular systolic pressure (LVSP), mean aortic pressure (MAoP), heart rate, and maximum and minimum LV dP/dt (dP/dtmax and dP/dtmin) were later obtained from stored hemodynamic recordings by a single individual (S.X.), who was blinded to animals' group assignments.

For assay [3], the system named is myocytes (TUNEL, 8-oxoG, MYH, OGG1 staining). Briefly: Quantitative immunohistochemistry staining of apoptosis, DNA damage and DNA repair markers (Example 5). To be noted: mean ± SD; for 8-oxoG: DNA damage product, HF 18 ± 4, Sham 0.5 ± 0.1; for OGG1: DNA repair marker, HF 0.5 ± 0.1, Sham 0.2 ± 0.1; for TUNEL: percentage of myocytes with nuclear staining, HF 21 ± 4, Sham 0.5 ± 0.1; for MYH (score): score 0 = 0%, 1 = 0-15%, 2 = 15-30%, 3 = 30-50%, 4 = >50% positive, HF 1.4 ± 0.5, Sham 0.6 ± 0.2. The protocol: as §2
A short-axis section of the heart at the point of maximal infarction was fixed in 4% paraformaldehyde solution for 12 hours. Sections were then embedded in paraffin and 5 μm slices used for trichrome staining. The infarct size was determined as a percentage of the LV circumference under light microscopy by a single individual (S.X.) blinded to group assignment. The remaining heart tissue was flash-frozen in liquid nitrogen and stored at −80° C. for Western blot analysis.
Histological sections (5 μm thick) were used to perform immunohistochemistry for: terminal deoxynucleotidyltransferase end labeling (TUNEL; apoptosis marker), 8-oxoG (DNA damage product), MYH (DNA mismatch repair enzyme), and OGG1 (DNA base excision repair enzyme). The percentage of myocytes with nuclear staining was quantified in a blinded manner. Because OGG1 is found both in the nucleus and cytoplasm, a scoring system was utilized to semi-quantitatively describe the staining observed: 0=no staining; 1=0 to 15% staining; 2=15 to 30% staining; 3=30 to 50% staining; and 4=>50% staining of the nucleus and cytoplasm.

We go through two molecules from US20090088482A1, “Compositions and Methods For Treating Heart Failure” (The Trustees Of Columbia University In The City New York, priority 2003, published 2009).

For the molecule `CC(C)(C)NCC(O)c1cc(Cl)c(N)c(Cl)c1` (stereo not shown) [Clen, clenbuterol], in assay [1], the “Heart Wt” value is given as 2.64 ± 0.41 § † gm and the “% Δ Weight (percentage change in pre-treatment to post-treatment weights)” value is 49.9 ± 7.18 † %. In addition, in assay [2], the MAP was 44.2 ± 6.06 mmHg, the LVSP came out at 109 ± 10.7 mmHg, the HR was 281 ± 11.2 bpm and the “Maximum dP/dt” value was found to be 4933 ± 596 mmHg/s. Besides, the “Minimum dP/dt” value in assay [2] was 3901 ± 694 mmHg/s. Moreover, in assay [3], the 8-oxoG was 10 ± 2 † %, the OGG1 was 8.2 ± 2.2 † %, the TUNEL is recorded as 11 ± 3 † % and the “MYH (score)” value is reported as 2.8 ± 0.5 † score.
Consider `COCCc1ccc(OCC(O)CNC(C)C)cc1` (stereo not shown) [Meto, metoprolol], for which, in assay [1], the “Heart Wt” value was 2.17 ± 0.34 gm and the “% Δ Weight (percentage change in pre-treatment to post-treatment weights)” value came to 32.3 ± 7.16 %. Besides, in assay [2], the MAP amounted to 42.7 ± 5.38 mmHg, the LVSP is listed as 107 ± 9.27 mmHg, the HR is 243 ± 19.4 bpm and the “Maximum dP/dt” value was 5462 ± 541 mmHg/s. The “Minimum dP/dt” value in assay [2] is listed as −4032 ± 830 mmHg/s. In assay [3], the 8-oxoG is given as 12 ± 3 † %, the OGG1 is 6.4 ± 1.5 † %, the TUNEL is recorded as 12 ± 4 † % and the “MYH (score)” value is 2.6 ± 0.4 † score.
